# Where “and” joins values, the source holds several entries; their conditions need not be identical. Equal entries are not always repeated. Where two headings read alike, the source gives them in different places. *1 amine or outer side, *2 acyl side, *3 side chain or, on linkers, in order; H or OH if unused. Where a SMILES comes first, the peptide text is derived from it. Side-chain parts run from the residue outwards. [ ]: non-standard residue; d: D form. The star is where a group is joined. C18 diacid = O=C(O)CCCCCCCCCCCCCCCCC(=O)*; γGlu = O=C(O)[C@H](CCC(=O)[*:2])N[*:1]; AEEA = NCCOCCOCC(=O)O; Aib = CC(C)(N)C(=O)O
# How the values were obtained:
# Format in all cases: cell-based
# human GLP-2R = target: T1, human GLP-2R (Homo sapiens, UniProt O95838); assay: cAMP assay (HitHunter) in transiently transfected COS-7 cells expressing human GLP-2R; conditions: for EC50: cAMP, COS-7 cells, human GLP-2R, read-out: EC50 (nM) GLP-2R
# T1 construct: host or cells: COS-7
# T1 sequence (O95838 1-553): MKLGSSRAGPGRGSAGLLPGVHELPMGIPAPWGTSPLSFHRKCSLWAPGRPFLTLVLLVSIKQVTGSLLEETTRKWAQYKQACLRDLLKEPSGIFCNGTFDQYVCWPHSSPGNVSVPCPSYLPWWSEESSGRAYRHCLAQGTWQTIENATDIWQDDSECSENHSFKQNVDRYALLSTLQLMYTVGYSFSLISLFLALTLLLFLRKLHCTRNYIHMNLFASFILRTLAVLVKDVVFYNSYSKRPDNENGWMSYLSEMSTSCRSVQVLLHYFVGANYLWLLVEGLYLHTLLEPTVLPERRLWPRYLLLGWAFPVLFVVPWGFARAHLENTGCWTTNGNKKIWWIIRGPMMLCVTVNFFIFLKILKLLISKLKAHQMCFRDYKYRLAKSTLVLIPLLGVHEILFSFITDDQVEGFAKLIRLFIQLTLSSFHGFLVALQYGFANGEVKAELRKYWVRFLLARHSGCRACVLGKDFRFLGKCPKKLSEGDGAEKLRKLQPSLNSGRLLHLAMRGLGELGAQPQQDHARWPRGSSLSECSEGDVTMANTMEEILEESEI
# human SNAP-tagged GIPR = target: T2, human SNAP-tagged GIPR (Homo sapiens, UniProt P48546); assay: Receptor internalization assay, HEK293A cells expressing human SNAP-tagged GIPR
# T2 construct: host or cells: HEK293A
# T2 sequence (P48546 22-466): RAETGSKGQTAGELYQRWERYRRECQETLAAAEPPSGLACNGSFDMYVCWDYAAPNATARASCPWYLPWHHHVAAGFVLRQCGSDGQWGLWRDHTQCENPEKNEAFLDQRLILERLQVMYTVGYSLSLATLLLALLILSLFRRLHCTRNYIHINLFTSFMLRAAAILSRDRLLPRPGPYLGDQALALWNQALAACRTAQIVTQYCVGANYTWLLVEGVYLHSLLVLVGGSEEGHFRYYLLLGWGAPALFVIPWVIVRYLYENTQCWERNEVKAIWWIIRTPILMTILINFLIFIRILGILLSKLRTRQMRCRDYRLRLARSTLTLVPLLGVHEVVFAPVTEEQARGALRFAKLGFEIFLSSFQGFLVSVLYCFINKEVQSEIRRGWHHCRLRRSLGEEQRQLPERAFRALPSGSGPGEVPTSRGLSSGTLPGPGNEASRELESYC
# human SNAP-tagged GLP-1R = target: T3, human SNAP-tagged GLP-1R (Homo sapiens, UniProt P43220); assay: Receptor internalization assay, HEK293A cells expressing human SNAP-tagged GLP-1R; conditions: for Absolute hGLP-1R internalization (AUC): AUC of sigmoid curves up to 1 μM, 60 minutes at 37° C.; for Relative hGLP-1R internalization (%): relative to hGLP-1 = 100
# T3 construct: expressed in transfected cells; host or cells: HEK293A
# T3 sequence (P43220 24-463): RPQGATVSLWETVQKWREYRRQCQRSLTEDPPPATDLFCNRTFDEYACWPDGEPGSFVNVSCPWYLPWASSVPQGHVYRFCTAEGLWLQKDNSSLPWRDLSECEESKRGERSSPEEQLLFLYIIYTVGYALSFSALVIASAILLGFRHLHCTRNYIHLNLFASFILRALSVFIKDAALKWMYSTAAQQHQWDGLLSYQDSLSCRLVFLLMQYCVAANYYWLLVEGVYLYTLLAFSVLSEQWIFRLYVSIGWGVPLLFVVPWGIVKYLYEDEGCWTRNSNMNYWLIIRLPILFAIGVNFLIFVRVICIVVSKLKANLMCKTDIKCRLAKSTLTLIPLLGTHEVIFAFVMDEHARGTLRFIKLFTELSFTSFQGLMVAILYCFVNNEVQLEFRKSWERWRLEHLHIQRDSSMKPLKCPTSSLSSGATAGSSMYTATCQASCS
# human GLP-1R = target: T4, human GLP-1R (Homo sapiens, UniProt P43220); assay: cAMP assay (HitHunter) in transiently transfected COS-7 cells expressing human GLP-1R
# T4 construct: host or cells: COS-7
# T4 sequence (P43220 24-463): as above
# human GIPR = target: T5, human GIPR (Homo sapiens, UniProt P48546); assay: cAMP assay (HitHunter) in transiently transfected COS-7 cells expressing human GIPR
# T5 construct: host or cells: COS-7
# T5 sequence (P48546 22-466): T2 sequence (P48546 22-466)
# human SNP-tagged GLP-2R = target: T6, human SNP-tagged GLP-2R (Homo sapiens, UniProt O95838); assay: Receptor internalization assay, HEK293A cells expressing human SNAP-tagged GLP-2R; conditions: for Absolute hGLP-2R internalization (AUC): AUC of sigmoid curves up to 1 μM, 60 minutes at 37° C.; for Relative hGLP-2R internalization (%): relative to native ligand = 100
# T6 construct: expressed in transfected cells; host or cells: HEK293A
# T6 sequence (O95838 1-553): T1 sequence (O95838 1-553)
# [1] = target: human glucagon receptor (GCGR) (Homo sapiens, UniProt P47871); assay: Gs activation measured as cAMP accumulation on human glucagon receptor (FIG. 1 radar plot); conditions: read-out: −p Log EC50 on human glucagon receptor (GCGR) (converted)
# Chain of human glucagon receptor (GCGR) (P47871 26-477): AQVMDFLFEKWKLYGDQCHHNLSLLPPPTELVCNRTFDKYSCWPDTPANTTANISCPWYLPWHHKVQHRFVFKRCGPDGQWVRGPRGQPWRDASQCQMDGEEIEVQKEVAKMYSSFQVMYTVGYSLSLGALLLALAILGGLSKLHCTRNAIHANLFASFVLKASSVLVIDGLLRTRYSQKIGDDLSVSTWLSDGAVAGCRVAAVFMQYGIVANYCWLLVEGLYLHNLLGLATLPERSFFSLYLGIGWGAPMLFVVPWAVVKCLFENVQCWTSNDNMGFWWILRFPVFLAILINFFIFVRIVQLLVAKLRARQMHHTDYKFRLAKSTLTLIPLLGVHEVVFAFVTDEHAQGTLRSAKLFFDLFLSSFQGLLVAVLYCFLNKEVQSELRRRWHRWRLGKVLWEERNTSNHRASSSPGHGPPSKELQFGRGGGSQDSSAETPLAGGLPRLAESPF
# Excerpt: Here, the compounds 20, 21, 22, 28, 30, 31,32, 33, 34, 35 are shown in terms of their potencies in Gs activation, measured as CAMP accumulation, depicted in a radar plot. The numbers refer to −p Log EC50 values. […] The outer rings correspond to higher potencies, the inner rings correspond to lower potencies.
# [2] = COS-7, normalized to highest concentration of the endogenous ligand, read-out: Efficacy GLP-2R (Emax)
# [3] = AUC of sigmoid curves up to 1 μM, 60 minutes at 37° C.
# [4] = COS-7, normalized to highest concentration of the endogenous ligand, read-out: Efficacy GLP-1R (Emax)
# [5] = COS-7, normalized to highest concentration of the endogenous ligand, read-out: Efficacy GIPR (Emax)
# [6] = COS-7, read-out: Efficacy GLP-2R (Emax)
# [7] = COS-7, read-out: Efficacy GLP-1R (Emax)
# [8] = COS-7, read-out: Efficacy GIPR (Emax)
Structure (SMILES),Emax (human GLP-2R; [2]) [%],EC50 (human GLP-2R) [nM],Absolute hGIPR internalization (AUC) (human SNAP-tagged GIPR; [3]),Relative hGIPR internalization (%) (human SNAP-tagged GIPR; relative to hGIP 1-42 = 100),Absolute hGLP-1R internalization (AUC) (human SNAP-tagged GLP-1R),Relative hGLP-1R internalization (%) (human SNAP-tagged GLP-1R),Emax (human GLP-1R; [4]) [%],"EC50 (human GLP-1R; cAMP, COS-7 cells, human GLP-1R, read-out: EC50 (nM) GLP-1R) [nM]",Emax (human GIPR; [5]) [%],Absolute hGLP-2R internalization (AUC) (human SNP-tagged GLP-2R),Relative hGLP-2R internalization (%) (human SNP-tagged GLP-2R),EC50 [1] [nM],Emax (human GLP-2R; [6]) [%],Absolute hGIPR internalization (AUC) (human SNAP-tagged GIPR),Relative hGIPR internalization (%) (human SNAP-tagged GIPR),Emax (human GLP-1R; [7]) [%],Emax (human GIPR; [8]) [%],loss in GIP potency in cAMP (human GIPR; fatty acid in position 17 compared to position 16 (Compound 30)) [fold]
CC[C@H](C)[C@H](NC(=O)[C@H](Cc1ccccc1)NC(=O)[C@H](CC(=O)O)NC(=O)[C@H](CCCNC(=N)N)NC(=O)[C@H](C)NC(=O)[C@H](C)NC(=O)[C@H](CC(C)C)NC(=O)[C@H](C)NC(=O)[C@H](CC(=O)O)NC(=O)[C@H](CC(C)C)NC(=O)[C@@H](NC(=O)[C@@H](NC(=O)[C@H](CO)NC(=O)[C@H](Cc1ccc(O)cc1)NC(=O)[C@H](CC(=O)O)NC(=O)[C@H](CO)NC(=O)[C@@H](NC(=O)[C@H](Cc1ccccc1)NC(=O)[C@@H](NC(=O)CNC(=O)[C@H](CC(=O)O)NC(=O)C(C)(C)NC(=O)[C@@H](N)Cc1c[nH]cn1)[C@@H](C)O)[C@@H](C)CC)[C@@H](C)O)[C@@H](C)CC)C(=O)N[C@@H](CC(N)=O)C(=O)N[C@@H](Cc1c[nH]c2ccccc12)C(=O)N[C@@H](CC(C)C)C(=O)N[C@H](C(=O)N[C@@H](CCC(N)=O)C(=O)N[C@H](C(=O)N[C@@H](CCCCN)C(=O)N[C@H](C(=O)N[C@H](C(=O)N[C@@H](CCCCNC(=O)COCCOCCNC(=O)COCCOCCNC(=O)CC[C@H](NC(=O)CCCCCCCCCCCCCCCCC(=O)O)C(=O)O)C(=O)O)[C@@H](C)O)[C@@H](C)CC)[C@@H](C)O)[C@@H](C)CC [Compound 28] (H-H[Aib]DGTFISDYSTILDALAARDFINWLIQTKITK([AEEA-AEEA-γGlu-C18 diacid])-OH; N-terminus assumed),89,2.2,21.7,58% and 59%,0.96,1.14,102,3.98,119,12.0,24.8,> 100,,,,,,
CC[C@H](C)[C@H](NC(=O)[C@H](Cc1ccccc1)NC(=O)[C@H](CC(=O)O)NC(=O)[C@H](CCCNC(=N)N)NC(=O)[C@H](C)NC(=O)[C@H](C)NC(=O)[C@H](CC(C)C)NC(=O)[C@H](CCCCNC(=O)COCCOCCNC(=O)COCCOCCNC(=O)CC[C@H](NC(=O)CCCCCCCCCCCCCCCCC(=O)O)C(=O)O)NC(=O)[C@H](CC(=O)O)NC(=O)[C@H](CC(C)C)NC(=O)[C@@H](NC(=O)[C@@H](NC(=O)[C@H](CO)NC(=O)[C@H](Cc1ccc(O)cc1)NC(=O)[C@H](CC(=O)O)NC(=O)[C@H](CO)NC(=O)[C@@H](NC(=O)[C@H](Cc1ccccc1)NC(=O)[C@@H](NC(=O)CNC(=O)[C@H](CC(=O)O)NC(=O)[C@H](C)NC(=O)[C@@H](N)Cc1c[nH]cn1)[C@@H](C)O)[C@@H](C)CC)[C@@H](C)O)[C@@H](C)CC)C(=O)N[C@@H](CC(N)=O)C(=O)N[C@@H](Cc1c[nH]c2ccccc12)C(=O)N[C@@H](CC(C)C)C(=O)N[C@H](C(=O)N[C@@H](CCC(N)=O)C(=O)N[C@H](C(=O)N[C@@H](CCCCN)C(=O)NCC(=O)N[C@@H](CCCCN)C(=O)N[C@@H](CCCCN)C(=O)O)[C@@H](C)O)[C@@H](C)CC [Compound 30],,,,,7.3,8.6,,,,22.7,46.8,> 100,73,21.0,57,93,98,
CC[C@H](C)[C@H](NC(=O)[C@H](Cc1ccccc1)NC(=O)[C@H](CC(=O)O)NC(=O)[C@H](CCCNC(=N)N)NC(=O)[C@H](C)NC(=O)[C@H](C)NC(=O)[C@H](CC(C)C)NC(=O)[C@H](CCCCNC(=O)COCCOCCNC(=O)COCCOCCNC(=O)CC[C@H](NC(=O)CCCCCCCCCCCCCCCCC(=O)O)C(=O)O)NC(=O)[C@H](CC(=O)O)NC(=O)[C@H](CC(C)C)NC(=O)C(C)(C)NC(=O)[C@@H](NC(=O)[C@H](CO)NC(=O)[C@H](Cc1ccc(O)cc1)NC(=O)[C@H](CC(=O)O)NC(=O)[C@H](CO)NC(=O)[C@@H](NC(=O)[C@H](Cc1ccccc1)NC(=O)[C@@H](NC(=O)CNC(=O)[C@H](CC(=O)O)NC(=O)[C@H](C)NC(=O)[C@@H](N)Cc1c[nH]cn1)[C@@H](C)O)[C@@H](C)CC)[C@@H](C)O)C(=O)N[C@@H](CC(N)=O)C(=O)N[C@@H](Cc1c[nH]c2ccccc12)C(=O)N[C@@H](CC(C)C)C(=O)N[C@H](C(=O)N[C@@H](CCC(N)=O)C(=O)N[C@H](C(=O)N[C@@H](CCCCN)C(=O)NCC(=O)N[C@@H](CCCCN)C(=O)N[C@@H](CCCCN)C(=O)O)[C@@H](C)O)[C@@H](C)CC [Compound 31],,,,,4.9,5.8,,,,30.6,63.0,> 100,79,16.0,43,89,85,
CC[C@H](C)[C@H](NC(=O)[C@H](Cc1ccccc1)NC(=O)[C@H](CC(=O)O)NC(=O)[C@H](CCCNC(=N)N)NC(=O)[C@H](C)NC(=O)[C@H](C)NC(=O)[C@H](CCCCNC(=O)COCCOCCNC(=O)COCCOCCNC(=O)CC[C@H](NC(=O)CCCCCCCCCCCCCCCCC(=O)O)C(=O)O)NC(=O)[C@H](CC(N)=O)NC(=O)[C@H](CC(=O)O)NC(=O)[C@H](CC(C)C)NC(=O)[C@@H](NC(=O)[C@@H](NC(=O)[C@H](CO)NC(=O)[C@H](Cc1ccc(O)cc1)NC(=O)[C@H](CC(=O)O)NC(=O)[C@H](CO)NC(=O)[C@@H](NC(=O)[C@H](Cc1ccccc1)NC(=O)[C@@H](NC(=O)CNC(=O)[C@H](CC(=O)O)NC(=O)[C@H](C)NC(=O)[C@@H](N)Cc1c[nH]cn1)[C@@H](C)O)[C@@H](C)CC)[C@@H](C)O)[C@@H](C)CC)C(=O)N[C@@H](CC(N)=O)C(=O)N[C@@H](Cc1c[nH]c2ccccc12)C(=O)N[C@@H](CC(C)C)C(=O)N[C@H](C(=O)N[C@@H](CCC(N)=O)C(=O)N[C@H](C(=O)N[C@@H](CCCCN)C(=O)NCC(=O)N[C@@H](CCCCN)C(=O)N[C@@H](CCCCN)C(=O)O)[C@@H](C)O)[C@@H](C)CC [Compound 32] (H-HADGTFISDYSTILDNK([AEEA-AEEA-γGlu-C18 diacid])AARDFINWLIQTKGKK-OH),77,3.2,6.5,18%,7.0,8.3,84,,80,15.0,30.8,> 100,,,,,,> 10
